Laboratory results reported in patent US11021435B2, “Serotonin receptor-targeting compounds and methods” (priority 2014, dated 2021).
“Also recorded” adds a separate entry of the source.

What was measured:
5-HT2A [1] = biological target: T1, 5-HT2A (Homo sapiens, UniProt P28223); design: expressed in transfected cells; host or cells: HEK293, transient; conditions: cited from earlier work
5-HT2B [2] = biological target: T2, 5-HT2B (Homo sapiens, UniProt P41595); design: expressed in transfected cells; host or cells: HEK293, transient; conditions: cited from earlier work
T2 sequence (P41595 whole entry): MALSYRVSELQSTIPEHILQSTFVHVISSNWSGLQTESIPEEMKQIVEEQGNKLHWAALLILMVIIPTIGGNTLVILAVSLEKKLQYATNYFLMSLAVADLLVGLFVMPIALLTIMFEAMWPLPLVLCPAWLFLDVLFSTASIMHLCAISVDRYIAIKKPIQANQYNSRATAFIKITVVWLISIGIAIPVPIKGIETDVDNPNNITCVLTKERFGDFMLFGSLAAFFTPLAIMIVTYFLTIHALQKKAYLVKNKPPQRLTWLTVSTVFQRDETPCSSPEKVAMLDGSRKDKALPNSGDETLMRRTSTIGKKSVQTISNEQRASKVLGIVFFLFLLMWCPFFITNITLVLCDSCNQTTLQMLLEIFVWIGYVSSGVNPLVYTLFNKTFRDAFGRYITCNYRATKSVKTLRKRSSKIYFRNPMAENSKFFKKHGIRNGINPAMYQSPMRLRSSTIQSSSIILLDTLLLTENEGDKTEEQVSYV

5-HT2A [3] = biological target: T1, 5-HT2A; experiment: Radioreceptor competitive binding, [3H]ketanserin (4-PAT series); conditions: 2.0 nM [3H]ketanserin; HCl salts; read-out: Affinity (Ki ± SEM) 5-HT2A
Procedure: (§1) Radioreceptor competitive binding assays were carried out to assess the binding affinities of the compounds of the invention. Radioligand competitive displacement binding assays were performed in 96-well plates, using 3-5 μg of protein from membrane samples per well. Each concentration point in the binding experiments was performed in triplicates of samples, and each experiment was performed a minimum of three times. […] Non-specific binding was determined in the presence of or 10 μM mianserin for all three 5-HT2 receptors or 10 μM triprolidine for H1 receptors. Radioreceptor binding assay mixtures were incubated for 1.0 hour at 37° C., with termination by rapid filtration through Whatman GF/B filters using a 96-well cell harvester (Tomtec, Hamden, Conn.), which were subsequently washed five times with 50 mM Tris-HCl at room temperature. Filters containing bound [^3H]radioligand were dried, placed in vials containing 2 mL scintillation cocktail (ScintiVerse), allowed to equilibrate overnight, and then were counted for ^3H-induced scintillation using a Beckman-Coulter LS6500 counter.
(§2) Competition binding data were analyzed using nonlinear regression curve-fitting algorithms in GraphPad Prism, 6 for Windows (San Diego, Calif.). […] Ligand affinity was expressed as an approximation of Ki values by conversion of the IC50 value using the Cheng-Prusoff equation […] where L was the concentration of radioligand.

5-HT2B [4] = biological target: T2, 5-HT2B; experiment: Radioreceptor competitive binding, [3H]mesulergine (4-PAT series); conditions: 1.95 nM [3H]mesulergine; read-out: Affinity (Ki ± SEM) 5-HT2B
Procedure: as §1, §2

5-HT2C [5] = biological target: T3, 5-HT2C (Homo sapiens, UniProt P28335); experiment: as above; conditions: read-out: Affinity (Ki ± SEM) 5-HT2C
T3 sequence (P28335 33-458): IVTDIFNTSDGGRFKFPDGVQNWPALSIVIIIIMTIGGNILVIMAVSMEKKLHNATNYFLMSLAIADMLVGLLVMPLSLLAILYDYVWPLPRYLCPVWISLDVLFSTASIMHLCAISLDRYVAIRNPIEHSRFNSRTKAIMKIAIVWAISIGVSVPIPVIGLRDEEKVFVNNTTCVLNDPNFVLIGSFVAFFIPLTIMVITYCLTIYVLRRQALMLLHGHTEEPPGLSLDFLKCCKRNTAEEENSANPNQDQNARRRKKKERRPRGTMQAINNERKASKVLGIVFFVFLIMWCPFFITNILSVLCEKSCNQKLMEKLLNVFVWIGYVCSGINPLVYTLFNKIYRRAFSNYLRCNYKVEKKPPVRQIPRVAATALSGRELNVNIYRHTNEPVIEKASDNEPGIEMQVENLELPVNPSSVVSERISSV
Procedure: as §1, §2

H1 = H1 (Homo sapiens, UniProt P35367); experiment: Radioreceptor competitive binding, [3H]mepyramine (4-PAT series); conditions: for Ki: 1.0 nM [3H]mepyramine, read-out: Affinity (Ki ± SEM) H1
Chain of H1 (P35367 whole entry): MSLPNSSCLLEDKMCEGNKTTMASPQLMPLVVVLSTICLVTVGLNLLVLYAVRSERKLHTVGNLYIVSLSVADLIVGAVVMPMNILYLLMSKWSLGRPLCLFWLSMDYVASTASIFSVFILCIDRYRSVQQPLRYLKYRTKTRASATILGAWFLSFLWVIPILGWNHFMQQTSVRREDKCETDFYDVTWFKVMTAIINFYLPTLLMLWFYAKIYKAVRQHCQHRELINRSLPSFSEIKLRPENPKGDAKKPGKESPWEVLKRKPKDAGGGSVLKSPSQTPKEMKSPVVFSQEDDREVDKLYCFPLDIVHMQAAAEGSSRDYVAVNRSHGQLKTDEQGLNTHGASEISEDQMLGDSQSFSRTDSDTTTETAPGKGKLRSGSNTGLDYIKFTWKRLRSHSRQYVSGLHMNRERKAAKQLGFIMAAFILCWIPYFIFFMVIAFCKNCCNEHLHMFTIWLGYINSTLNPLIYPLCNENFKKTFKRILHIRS
Procedure: as §1, §2

C57BI/6J mice = experiment: DOI-elicited head-twitch response (HTR) in C57BI/6J mice
Text: The 5-HT2A receptor is a predominant 5-HT receptor in the cortex, and serves important excitation modulation functions on glutamate pyramidal and GABA neurons.

[6] = biological target: T4, human 5-HT7 receptors (5-HT7a) (Homo sapiens, UniProt P34969); experiment: Radioligand competition binding ([3H]5-CT), HEK293 cells stably expressing human 5-HT7 receptors; conditions: Affinity Ki 5-HT7, our unreported observations
T4 construct: expressed in transfected cells
T4 sequence (P34969 1-445 isoform P34969-2): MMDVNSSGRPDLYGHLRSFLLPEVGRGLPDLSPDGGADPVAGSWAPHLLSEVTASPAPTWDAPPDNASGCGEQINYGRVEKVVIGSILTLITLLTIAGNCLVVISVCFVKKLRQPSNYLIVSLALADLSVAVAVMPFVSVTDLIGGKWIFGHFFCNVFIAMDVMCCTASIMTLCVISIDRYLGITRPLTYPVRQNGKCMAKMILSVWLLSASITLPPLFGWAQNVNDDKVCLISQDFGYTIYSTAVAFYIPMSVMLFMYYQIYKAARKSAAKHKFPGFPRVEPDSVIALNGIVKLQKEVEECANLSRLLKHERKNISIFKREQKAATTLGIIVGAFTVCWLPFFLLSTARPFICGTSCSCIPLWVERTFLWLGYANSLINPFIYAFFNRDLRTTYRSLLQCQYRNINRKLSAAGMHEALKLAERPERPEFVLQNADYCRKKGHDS
Text: FIGS. 4A-4C show the effects of 5-FPT are stereospecific. […] Data are expressed as the mean±SEM.

histamine H1 receptor = biological target: T5, histamine H1 receptor (Homo sapiens, UniProt P35367); experiment: Receptor-mediated inositol phosphate hydrolysis, transfected HEK293 cells; format: cell-based
T5 construct: expressed in transfected cells; host or cells: HEK293, transient
T5 sequence (P35367 whole entry): as the sequence (P35367 whole entry) above
Procedure: (§3) Functional responses of analog 7l and 5-HT (positive control agonist, data not shown) by measuring 5-HT2 and H1 receptor-mediated inositol phosphate hydrolysis were assessed. In brief, transiently transfected HEK293 cells were labeled with 1 μCi/ml [3H]myoinositol and seeded into 48-well plates. Cells were treated with test compounds for 30 minutes. The reaction was stopped by addition of 50 mM formic acid. Anion-exchange columns (Bio-Rad Laboratories, Hercules, Calif.) were used to bind and collect [3H]inositol phosphates. 3H-induced scintillations then were measured. Each experiment included a minimum of triplicate measurements for each concentration of test compound, and each experiment was performed a minimum of three times.

5-HT2A [7] = biological target: T1, 5-HT2A; experiment: as above; format: cell-based; design: expressed in transfected cells; host or cells: HEK293, transient; conditions: concentrations up to 10 μM
Procedure: as §3

5-HT2B [8] = biological target: T2, 5-HT2B; experiment: as above; format: cell-based; design: expressed in transfected cells; host or cells: HEK293, transient
Procedure: as §3

5-HT2C [9] = biological target: T3, 5-HT2C; experiment: as above; format: cell-based; design: expressed in transfected cells; host or cells: HEK293, transient
Procedure: as §3, with “In” for “Functional responses of analog 7l and 5-HT (positive control agonist, data not shown) by measuring 5-HT2 and H1 receptor-mediated inositol phosphate hydrolysis were assessed. In”

T1 sequence (P28223 whole entry): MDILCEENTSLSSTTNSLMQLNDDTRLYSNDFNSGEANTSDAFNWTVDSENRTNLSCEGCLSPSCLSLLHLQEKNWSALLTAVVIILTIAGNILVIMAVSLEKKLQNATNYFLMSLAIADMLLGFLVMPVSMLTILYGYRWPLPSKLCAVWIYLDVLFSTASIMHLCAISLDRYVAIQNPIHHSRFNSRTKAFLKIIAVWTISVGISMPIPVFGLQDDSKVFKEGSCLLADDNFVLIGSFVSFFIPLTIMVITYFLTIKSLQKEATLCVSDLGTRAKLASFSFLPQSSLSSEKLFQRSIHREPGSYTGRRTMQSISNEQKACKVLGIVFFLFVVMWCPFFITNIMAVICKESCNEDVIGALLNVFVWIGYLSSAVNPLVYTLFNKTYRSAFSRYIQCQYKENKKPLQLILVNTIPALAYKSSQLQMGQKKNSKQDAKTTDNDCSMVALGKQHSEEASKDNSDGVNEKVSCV

Q: For `C[C@H]1CNCCc2ccc(Cl)cc21` [lorcaserin], which “Activation of 5-HT2A receptors by reported selective 5-HT2C agonists” value (5-HT2A [1]) is on record?
A: Its value is “also activate”.

Q: And the “Activation of 5-HT2B receptors by reported selective 5-HT2C agonists” value (5-HT2B [2])?
A: Its value is “also activate”.

Q: Which results are given for `COc1ccc2c(c1)[C@@H](c1cccc(Cl)c1)C[C@H](N(C)C)C2` (single isomer, unassigned) [Compound 7k, Trans-4-(3′-Chlorophenyl)-6-methoxy-N,N-dimethyl-1,2,3,4-tetrahydronaphthalen-2-amine]?
A: Ki (5-HT2A [3]): 0.35 ± 0.016 µM; Ki (5-HT2B [4]): 0.31 ± 0.041 µM; Ki (5-HT2C [5]): 0.28 ± 0.03 µM; Ki (H1): 0.74 ± 0.08 µM

Q: For `COc1cc2c(cc1Cl)C[C@@H](N(C)C)C[C@@H]2c1cccc(Br)c1` (single isomer, unassigned) [Compound 7i, Trans-4-(3′-Bromophenyl)-6-methoxy-7-chloro-N,N-dimethyl-1,2,3,4-tetrahydronaphthalen-2-amine], which Ki (5-HT2A [3]) is on record?
A: The Ki was 0.079 ± 0.014 µM.

Q: What about the Ki (5-HT2B [4]) of the same compound?
A: Its Ki is 0.169 ± 0.027 µM.

Q: And the Ki (5-HT2C [5])?
A: The Ki was 0.35 ± 0.13 µM.

Q: And the Ki (H1)?
A: Its Ki is 0.65 ± 0.021 µM.

Q: Which “DOI-elicited HTR” value (C57BI/6J mice; C57BI/6J mice, DOI 1 mg/kg, 5-FPT up to 5.6 mg/kg, AS-19 10 mg/kg, DPAT 0.5 mg/kg) does the source give for `Cc1nn(C)c(C)c1-c1cccc2c1CC[C@H](N(C)C)C2` [AS-19, reference compound] here?
A: The value was “suppressed the DOI HTR; also recorded: attenuated the HTR”.

Q: And the “Locomotor behavior and serotonin syndrome seen in the DOI HTR assay” value (C57BI/6J mice; data not shown)?
A: Its value is “neither (−)-DPAT, a 5-HT1A partial agonist, nor AS-19 affected locomotor behavior or caused obvious serotonin syndrome”.

Q: For `CN(C)[C@@H]1Cc2cc(Cl)c(O)cc2[C@@H](c2ccccc2)C1` (single isomer, unassigned) [Compound 7n, Trans-4-Phenyl-6-hydroxy-7-chloro-N,N-dimethyl-1,2,3,4-tetrahydronaphthalen-2-amine], which Ki (5-HT2A [3]) is on record?
A: The Ki was 0.06 ± 0.0054 µM.

Q: What about the Ki (5-HT2B [4]) of the same compound?
A: The Ki was 0.091 µM.

Q: What about the Ki (5-HT2C [5]) of the same compound?
A: The Ki was 0.023 ± 0.003 µM.

Q: What about the Ki (H1) of the same compound?
A: Its Ki is 0.003 ± 0.001 µM.

Q: What does the source list for `COc1cc2c(cc1Cl)CC(N(C)C)CC2c1cccc(Cl)c1` (single isomer, unassigned) [Compound 7f]?
A: Ki (5-HT2A [3]): 0.05 ± 0.02 µM; Ki (5-HT2B [4]): 0.056 µM; Ki (5-HT2C [5]): 0.009 ± 0.002 µM; Ki (H1): 0.0189 ± 0.0007 µM

Q: For `COc1cc(CC(C)N)c(OC)cc1I` (racemic) [DOI, (±)-2,5-dimethoxy-4-iodoamphetamine, reference compound], which Ki [6] is on record?
A: The Ki was greater than 1 µM.

Q: Which Ki (5-HT2A [3]) does the source give for `COc1cc2c(cc1Cl)C[C@@H](N(C)C)C[C@H]2c1ccccc1` (single isomer, unassigned) [Compound 7c, Cis-4-Phenyl-6-methoxy-7-chloro-N,N-dimethyl-1,2,3,4-tetrahydronaphthalen-2-amine] here?
A: Its Ki is 2.3 µM.

Q: And the Ki (5-HT2B [4])?
A: The Ki was 2.5 µM.

Q: And the Ki (5-HT2C [5])?
A: Its Ki is 1.6 µM.

Q: And the “Lower H1 receptor affinity than (+)-cis-PAT 1c analog” value (H1)?
A: The value was “about 10 fold”.

Q: And the Ki (H1)?
A: The Ki was greater than 1 µM.

Q: Which Ki (5-HT2A [3]) does the source give for `CN(C)[C@@H]1Cc2cc(Cl)c(O)cc2[C@@H](c2ccccc2)C1` (single isomer, unassigned) [Compound 7m, Trans-4-Phenyl-6-hydroxy-7-chloro-N,N-dimethyl-1,2,3,4-tetrahydronaphthalen-2-amine] here?
A: Its Ki is 0.07 ± 0.0026 µM.

Q: And the Ki (5-HT2B [4])?
A: The Ki was 1.2 µM.

Q: What about the Ki (5-HT2C [5]) of the same compound?
A: The Ki was 1 µM.

Q: What about the Ki (H1) of the same compound?
A: Its Ki is 0.109 ± 0.017 µM.

Q: Which “Activation of 5-HT2A receptors by reported selective 5-HT2C agonists” value (5-HT2A [1]) does the source give for `C[C@H](N)Cn1ccc2cc(F)c(Cl)cc21` [Ro60-0175] here?
A: Its value is “also activate”.

Q: What about the “Activation of 5-HT2B receptors by reported selective 5-HT2C agonists” value (5-HT2B [2]) of the same compound?
A: The value was “also activate”.

Q: Which Ki (5-HT2A [3]) does the source give for `COc1cc2c(cc1Cl)C[C@@H](N(C)C)C[C@@H]2c1ccccc1` (single isomer, unassigned) here?
A: Its Ki is 0.16 ± 0.024 µM.

Q: What about the Ki (5-HT2B [4]) of the same compound?
A: Its Ki is 0.0173 ± 0.00533 µM.

Q: And the Ki (5-HT2C [5])?
A: Its Ki is 0.024 ± 0.0025 µM.

Q: What about the Ki (H1) of the same compound?
A: The Ki was 0.0012 ± 0.0006 µM.

Q: What does the source list for `COc1ccc2c(c1)[C@@H](c1cccc(Cl)c1)C[C@H](N(C)C)C2` (single isomer, unassigned) [Compound 7l, Trans-4-(3′-Chlorophenyl)-6-methoxy-N,N-dimethyl-1,2,3,4-tetrahydronaphthalen-2-amine]?
A: Ki (5-HT2A [3]): 0.035 ± 0.003 µM; Ki (5-HT2B [4]): 0.065 µM; Ki (5-HT2C [5]): 0.017 ± 0.001 µM; Reduced affinity at H1 receptors compared to unsubstituted PAT (7b) (H1): > 40 fold; Ki (H1): 0.086 ± 0.018 µM; Efficacy H1, Imax (histamine H1 receptor; inverse agonist): −25 ± 1.5%; IC50 (histamine H1 receptor; mean ± S.E.M.): 0.048 µM; Function 5-HT2A (activation) (5-HT2A [7]): did not activate; Function 5-HT2A (activation) (5-HT2A [7]; listed as 71): No; Efficacy 5-HT2B, Imax (5-HT2B [8]; inverse agonist): Imax = −17 ± 4.6%; IC50 (5-HT2B [8]; mean ± S.E.M.): 0.051 µM; Emax (5-HT2C [9]; HEK293, read-out: Efficacy 5-HT2C, EMAX): 73 ± 6%; EC50 (5-HT2C [9]; read-out: Function 5-HT2C, EC50 (agonist potency)): 0.019 ± 0.001 µM

Q: Which Ki (5-HT2A [3]) does the source give for `COc1cc2c(cc1Cl)C[C@@H](N(C)C)C[C@H]2c1ccccc1` (single isomer, unassigned) [Compound 7d, Cis-4-Phenyl-6-methoxy-7-chloro-N,N-dimethyl-1,2,3,4-tetrahydronaphthalen-2-amine] here?
A: The Ki was 0.32 ± 0.042 µM.

Q: And the Ki (5-HT2B [4])?
A: The Ki was 0.043 ± 0.005 µM.

Q: What about the Ki (5-HT2C [5]) of the same compound?
A: Its Ki is 0.096 ± 0.018 µM.

Q: And the Ki (H1)?
A: Its Ki is 0.0108 ± 0.0006 µM.

Q: With `COc1cc2c(cc1Cl)C[C@@H](N(C)C)C[C@@H]2c1cccc(Br)c1` (single isomer, unassigned) [Compound 7j, Trans-4-(3′-Bromophenyl)-6-methoxy-7-chloro-N,N-dimethyl-1,2,3,4-tetrahydronaphthalen-2-amine] as the compound, how does the Ki (5-HT2A [3]) read?
A: The Ki was 0.061 ± 0.015 µM.

Q: And the Ki (5-HT2B [4])?
A: The Ki was 0.05 µM.

Q: What about the Ki (5-HT2C [5]) of the same compound?
A: The Ki was 0.13 ± 0.043 µM.

Q: And the Ki (H1)?
A: Its Ki is 0.23 ± 0.033 µM.
